Measurements as given in patent publication EP0908457B1, “3-(1,2-benzisothiazol- and isoxazol-5-Y1)-2,4(1H,3H)-pyrimidinedione or thione and 3-(1,2-benzisothiazol- and isoxazol-5-y1)-4(3H)-pyrimidinone or thione herbicidal agents” (BASF AKTIENGESELLSCHAFT, priority 1997, dated 1999).

How the values were obtained:
[1] = test system: Echinochloa oryzoides (Ard.) Fritsch.; test: Preemergence weed control under flooded paddy conditions, ECHORC (Watergrass (Calif.)); assay type: in vivo; settings: preemergence, flooded paddy, rated three to four weeks after treatment
Cyperus iria = test: Preemergence weed control under flooded paddy conditions, CYPIR (Rice Flatsedge); assay type: in vivo; settings: preemergence, flooded paddy, rated three to four weeks after treatment
[2] = test system: Cyperus serotinus, Rottb.; test: Preemergence weed control under flooded paddy conditions, CYPSE (Flatsedge); assay type: in vivo; settings: preemergence, rated three to four weeks after treatment
[3] = test system: Monochoria vaginalis, Presl.; test: Preemergence weed control under flooded paddy conditions, MOOVA (Monochoria); assay type: in vivo; settings: preemergence, flooded paddy, rated three to four weeks after treatment
Sagittaria pygmaea, L. = test: Preemergence weed control under flooded paddy conditions, SAGPY (Arrowhead (Pygmaea)); assay type: in vivo; settings: preemergence, flooded paddy, rated three to four weeks after treatment
[4] = test system: Oryza sativa, (L.) Tebonnet; test: Rice tolerance to post-transplant applications under flooded paddy conditions (Example 187), ORYSAT (Rice, Tebonnet); settings: rated three to four weeks after treatment

C=CCOC(=O)C(C)(C)c1nsc2ccc(-n3c(=O)cc(C(F)(F)F)n(C)c3=O)cc12 [Example 491, 1,2-Benzisothiazole-3-acetic acid, 5-[3,6-dihydro-3-methyl-2,6-dioxo-4-(trifluoromethyl)-1(2H)-pyrimidinyl]-alpha,alpha-dimethyl-, allyl ester]
6.5: ORYSAT herbicidal rating (rice tolerance) ([4]; 0.0620 kg/ha)
8.0: ORYSAT herbicidal rating (rice tolerance) ([4]; 0.1250 kg/ha)
9.0: ECHORC herbicidal rating ([1]; 0.0320 kg/ha) | ECHORC herbicidal rating ([1]; 0.0620 kg/ha) | ECHORC herbicidal rating ([1]; 0.1250 kg/ha) | ECHORC herbicidal rating ([1]; 0.2500 kg/ha) | CYPIR herbicidal rating (Cyperus iria; 0.0620 kg/ha) | CYPIR herbicidal rating (Cyperus iria; 0.1250 kg/ha) | CYPIR herbicidal rating (Cyperus iria; 0.2500 kg/ha) | CYPSE herbicidal rating ([2]; 0.0620 kg/ha) | CYPSE herbicidal rating ([2]; 0.1250 kg/ha) | CYPSE herbicidal rating ([2]; 0.2500 kg/ha) | MOOVA herbicidal rating ([3]; 0.0320 kg/ha) | MOOVA herbicidal rating ([3]; 0.0620 kg/ha) | MOOVA herbicidal rating ([3]; 0.1250 kg/ha) | MOOVA herbicidal rating ([3]; 0.2500 kg/ha) | SAGPY herbicidal rating (Sagittaria pygmaea, L.; 0.1250 kg/ha) | SAGPY herbicidal rating (Sagittaria pygmaea, L.; 0.2500 kg/ha)
5.0: SAGPY herbicidal rating (Sagittaria pygmaea, L.; 0.0320 kg/ha) | ORYSAT herbicidal rating (rice tolerance) ([4]; 0.0320 kg/ha)
7.5: CYPIR herbicidal rating (Cyperus iria; 0.0320 kg/ha) | ORYSAT herbicidal rating (rice tolerance) ([4]; 0.2500 kg/ha)
5.5: SAGPY herbicidal rating (Sagittaria pygmaea, L.; 0.0620 kg/ha)
7.0: CYPSE herbicidal rating ([2]; 0.0320 kg/ha)

COC(=O)C(C)Oc1cc(Cl)c(C)cc1-c1nsc2ccc(-n3c(=O)cc(C(F)(F)F)n(C)c3=O)cc12 (centres unmarked) [Example 492, Propionic acid, 2-{{5-chloro-2-{5-[3,6-dihydro-3-methyl-2,6-dioxo-4-(trifluoromethyl)-1(2H)-pyrimidinyl]-1,2-benzisothiazol-3-yl}-p-tolyl}oxy}-, methyl ester]
7.0: MOOVA herbicidal rating ([3]; 0.1250 kg/ha) | MOOVA herbicidal rating ([3]; 0.2500 kg/ha)
2.0: SAGPY herbicidal rating (Sagittaria pygmaea, L.; 0.2500 kg/ha) | ORYSAT herbicidal rating (rice tolerance) ([4]; 0.0320 kg/ha) | ORYSAT herbicidal rating (rice tolerance) ([4]; 0.0620 kg/ha) | ORYSAT herbicidal rating (rice tolerance) ([4]; 0.1250 kg/ha)
4.0: ECHORC herbicidal rating ([1]; 0.0320 kg/ha) | CYPIR herbicidal rating (Cyperus iria; 0.0320 kg/ha) | CYPIR herbicidal rating (Cyperus iria; 0.0620 kg/ha) | CYPIR herbicidal rating (Cyperus iria; 0.1250 kg/ha)
5.0: CYPIR herbicidal rating (Cyperus iria; 0.2500 kg/ha)
3.0: ORYSAT herbicidal rating (rice tolerance) ([4]; 0.2500 kg/ha)
9.0: ECHORC herbicidal rating ([1]; 0.2500 kg/ha)
6.0: ECHORC herbicidal rating ([1]; 0.0620 kg/ha) | ECHORC herbicidal rating ([1]; 0.1250 kg/ha) | MOOVA herbicidal rating ([3]; 0.0320 kg/ha) | MOOVA herbicidal rating ([3]; 0.0620 kg/ha)
0.0: CYPSE herbicidal rating ([2]; 0.2500 kg/ha) | SAGPY herbicidal rating (Sagittaria pygmaea, L.; 0.0320 kg/ha) | SAGPY herbicidal rating (Sagittaria pygmaea, L.; 0.0620 kg/ha) | SAGPY herbicidal rating (Sagittaria pygmaea, L.; 0.1250 kg/ha)

COC(=O)COc1cc(Cl)c(C)cc1-c1nsc2ccc(-n3c(=O)cc(C(F)(F)F)n(C)c3=O)cc12 [Example 493, Acetic acid, {{5-chloro-2-{5-[3,6-dihydro-3-methyl-2,6-dioxo-4-(trifluoromethyl)-1(2H)-pyrimidinyl]-1,2-benzisothiazol-3-yl}-p-tolyl}oxy}-, methyl ester]
9.0: ECHORC herbicidal rating ([1]; 0.1250 kg/ha) | ECHORC herbicidal rating ([1]; 0.2500 kg/ha) | CYPIR herbicidal rating (Cyperus iria; 0.2500 kg/ha) | CYPSE herbicidal rating ([2]; 0.1250 kg/ha) | CYPSE herbicidal rating ([2]; 0.2500 kg/ha) | MOOVA herbicidal rating ([3]; 0.2500 kg/ha)
2.0: ORYSAT herbicidal rating (rice tolerance) ([4]; 0.0320 kg/ha) | ORYSAT herbicidal rating (rice tolerance) ([4]; 0.0620 kg/ha)
7.0: CYPIR herbicidal rating (Cyperus iria; 0.1250 kg/ha) | MOOVA herbicidal rating ([3]; 0.0620 kg/ha) | MOOVA herbicidal rating ([3]; 0.1250 kg/ha)
5.0: ECHORC herbicidal rating ([1]; 0.0620 kg/ha) | MOOVA herbicidal rating ([3]; 0.0320 kg/ha)
6.0: CYPIR herbicidal rating (Cyperus iria; 0.0620 kg/ha)
3.0: SAGPY herbicidal rating (Sagittaria pygmaea, L.; 0.2500 kg/ha) | ORYSAT herbicidal rating (rice tolerance) ([4]; 0.1250 kg/ha) | ORYSAT herbicidal rating (rice tolerance) ([4]; 0.2500 kg/ha)
4.0: ECHORC herbicidal rating ([1]; 0.0320 kg/ha) | CYPIR herbicidal rating (Cyperus iria; 0.0320 kg/ha)
0.0: SAGPY herbicidal rating (Sagittaria pygmaea, L.; 0.0320 kg/ha) | SAGPY herbicidal rating (Sagittaria pygmaea, L.; 0.0620 kg/ha) | SAGPY herbicidal rating (Sagittaria pygmaea, L.; 0.1250 kg/ha)

CN(C(=O)c1nsc2ccc(-n3c(=O)cc(C(F)(F)F)n(C)c3=O)cc12)S(=O)(=O)Cc1ccccc1 [Example 494, 1,2-Benzisothiazole-3-carboxamide, N-(benzylsulfonyl)-5-[3,6-dihydro-3-methyl-2,6-dioxo-4-(trifluoromethyl)-1(2H)-pyrimidinyl]-N-methyl-]
0.0: ECHORC herbicidal rating ([1]; 0.0320 kg/ha) | CYPSE herbicidal rating ([2]; 0.1250 kg/ha) | SAGPY herbicidal rating (Sagittaria pygmaea, L.; 0.0320 kg/ha) | SAGPY herbicidal rating (Sagittaria pygmaea, L.; 0.0620 kg/ha) | SAGPY herbicidal rating (Sagittaria pygmaea, L.; 0.1250 kg/ha) | ORYSAT herbicidal rating (rice tolerance) ([4]; 0.0320 kg/ha) | ORYSAT herbicidal rating (rice tolerance) ([4]; 0.0620 kg/ha) | ORYSAT herbicidal rating (rice tolerance) ([4]; 0.1250 kg/ha) | ORYSAT herbicidal rating (rice tolerance) ([4]; 0.2500 kg/ha)
3.0: ECHORC herbicidal rating ([1]; 0.1250 kg/ha) | ECHORC herbicidal rating ([1]; 0.2500 kg/ha) | CYPIR herbicidal rating (Cyperus iria; 0.0320 kg/ha) | CYPSE herbicidal rating ([2]; 0.2500 kg/ha) | SAGPY herbicidal rating (Sagittaria pygmaea, L.; 0.2500 kg/ha)
2.0: ECHORC herbicidal rating ([1]; 0.0620 kg/ha)
5.0: CYPIR herbicidal rating (Cyperus iria; 0.1250 kg/ha) | CYPIR herbicidal rating (Cyperus iria; 0.2500 kg/ha) | MOOVA herbicidal rating ([3]; 0.1250 kg/ha)
4.0: CYPIR herbicidal rating (Cyperus iria; 0.0620 kg/ha) | MOOVA herbicidal rating ([3]; 0.0320 kg/ha) | MOOVA herbicidal rating ([3]; 0.0620 kg/ha)
6.0: MOOVA herbicidal rating ([3]; 0.2500 kg/ha)
